Reference: patent US8183239B2, “Substituted piperazines and piperidines as modulators of the neuropeptide Y2 receptor” (Janssen Pharmaceutica NV, priority 2005, dated 2012)

Biological target: T1, Y2 receptors (Homo sapiens, UniProt P49146)
T1 construct: endogenous in cells; host or cells: KAN-Ts cells (membranes)
T1 sequence (P49146 1-381): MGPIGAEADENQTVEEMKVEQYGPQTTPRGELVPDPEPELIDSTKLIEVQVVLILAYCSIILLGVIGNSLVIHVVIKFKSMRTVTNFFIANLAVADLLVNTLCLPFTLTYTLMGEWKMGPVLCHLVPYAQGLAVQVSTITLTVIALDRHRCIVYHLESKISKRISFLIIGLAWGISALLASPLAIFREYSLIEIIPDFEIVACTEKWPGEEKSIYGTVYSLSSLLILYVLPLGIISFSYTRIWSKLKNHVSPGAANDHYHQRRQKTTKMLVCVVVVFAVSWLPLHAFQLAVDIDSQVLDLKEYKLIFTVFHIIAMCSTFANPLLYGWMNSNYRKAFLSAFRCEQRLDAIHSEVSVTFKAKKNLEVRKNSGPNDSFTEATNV
Test: Radioligand binding assay ([125I]PYY, KAN-Ts cell membranes)
Settings: Table 1, [125I]PYY 80 pM, average of results, read-out: IC50
In short: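 IC50 values are means of three to eight experiments run in duplicate, fitted sigmoidally against specific binding (defined by […]). Competition used 80 pM [^125I]PYY for 1 h at room temperature on KAN-Ts membranes carrying native Y2, with filtration and scintillation counting.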

Point of comparison: `CCN(CC)C(=O)C(c1ccccc1)N1CCN(c2ccc(NC(=O)Cc3ccccc3OC)cc2F)CC1` (stereo not drawn) [Example 162, N,N-Diethyl-2-(4-{2-fluoro-4-[2-(2-methoxy-phenyl)-acetylamino]-phenyl}-piperazin-1-yl)-2-phenyl-acetamide], IC50 300 nM. Against it:
- CCN(CC)C(=O)C(c1ccccc1)C1CCN(c2ccc(NC(=O)c3ccsc3C)cc2F)CC1 (stereo not drawn) [Example 144, 2-Methyl-thiophene-3-carboxylic acid {4-[4-(diethylcarbamoyl-phenyl-methyl)-piperidin-1-yl]-3-fluoro-phenyl}-amide] — 3-fold lower, 100 nM
- CCN(CC)C(=O)C(c1ccccc1)C1CCN(c2ccc(NC(=O)c3cccn3C)cc2F)CC1 (stereo not drawn) [Example 145, 1-Methyl-1H-pyrrole-2-carboxylic acid {4-[4-(diethylcarbamoyl-phenyl-methyl)-piperidin-1-yl]-3-fluoro-phenyl}-amide] — 3-fold lower, 100 nM
- CCC(CC)C(=O)Nc1ccc(N2CCN(C(C(=O)OC)c3cc(F)cc(F)c3)CC2)c(F)c1 (stereo not drawn) [Example 146, (3,5-Difluoro-phenyl)-{4-[4-(2-ethyl-butyrylamino)-2-fluoro-phenyl]-piperazin-1-yl}-acetic acid methyl ester] — 2.6-fold lower, 115 nM
- CCNC(=O)C(c1ccccc1)C1CCN(c2ccc(NC(=O)C3(C)CCCCC3)cc2C#N)CC1 (stereo not drawn) [Example 147, 1-Methyl-cyclohexanecarboxylic acid {3-cyano-4-[4-(ethylcarbamoyl-phenyl-methyl)-piperidin-1-yl]-phenyl}-amide] — 3-fold lower, 100 nM
- CCNC(=O)C(c1ccccc1)C1CCN(c2ccc(NC(=O)[C@@H]3CCOC3)cc2C#N)CC1 (stereo partly drawn) [Example 148, (R)-Tetrahydro-furan-3-carboxylic acid {3-cyano-4-[4-(ethylcarbamoyl-phenyl-methyl)-piperidin-1-yl]-phenyl}-amide] — 2.5-fold lower, 120 nM
- CCN(CC)C(=O)C(c1ccccc1)C1CCN(c2ccc(NC(=O)c3ccccc3SC)cc2F)CC1 (stereo not drawn) [Example 149, N-{4-[4-(Diethylcarbamoyl-phenyl-methyl)-piperidin-1-yl]-3-fluoro-phenyl}-2-methylsulfanyl-benzamide] — 2.7-fold lower, 110 nM
- O=C(Nc1ccc(N2CCN(C(C(=O)N3CCC(F)(F)C3)c3ccccc3)CC2)c(F)c1)[C@H]1CCOC1 (stereo partly drawn) [Example 151, (S)-Tetrahydro-furan-3-carboxylic acid (4-{4-[2-(3,3-difluoro-pyrrolidin-1-yl)-2-oxo-1-phenyl-ethyl]-piperazin-1-yl}-3-fluoro-phenyl)-amide] — 2.1-fold lower, 140 nM
- CCN(CC)C(=O)C(c1ccccc1)N1CCN(c2ccc(NC(=O)C3C(C)(C)C3(C)C)cc2F)CC1 (stereo not drawn) [Example 152, 2,2,3,3-Tetramethyl-cyclopropanecarboxylic acid {4-[4-(diethylcarbamoyl-phenyl-methyl)-piperazin-1-yl]-3-fluoro-phenyl}-amide] — 1.8-fold lower, 170 nM
- CCC(CC)C(=O)Nc1ccc(N2CCN(C(C(=O)N(CC)CC)c3cc(F)ccc3Br)CC2)c(F)c1 (stereo not drawn) [Example 153, N-(4-{4-[(2-Bromo-5-fluoro-phenyl)-diethylcarbamoyl-methyl]-piperazin-1-yl}-3-fluoro-phenyl)-2-ethyl-butyramide] — 2.1-fold lower, 142 nM
- CCN(CC)C(=O)C(c1ccccc1)C1CCN(c2ccc(NC(=O)Cc3cc(C)ccc3C)cc2F)CC1 (stereo not drawn) [Example 154, 2-(1-{4-[2-(2,5-Dimethyl-phenyl)-acetylamino]-2-fluoro-phenyl}-piperidin-4-yl)-N,N-diethyl-2-phenyl-acetamide] — within 1.5-fold, 220 nM
- CCC(CC)C(=O)Nc1ccc(N2CCN(C(C(=O)N(CC)CC)c3ccc(F)cc3)CC2)c(F)c1 (stereo not drawn) [Example 155, N-(4-{4-[Diethylcarbamoyl-(4-fluoro-phenyl)-methyl]-piperazin-1-yl}-3-fluoro-phenyl)-2-ethyl-butyramide] — 1.5-fold lower, 200 nM
- CCN(CC)C(=O)C(c1ccccc1)C1CCN(c2ccc(NC(=O)Cc3c(F)cccc3F)cc2F)CC1 (stereo not drawn) [Example 156, 2-(1-{4-[2-(2,6-Difluoro-phenyl)-acetylamino]-2-fluoro-phenyl}-piperidin-4-yl)-N,N-diethyl-2-phenyl-acetamide] — within 1.5-fold, 230 nM
- CCN(CC)C(=O)C(c1ccccc1)C1CCN(c2ccc(NC(=O)c3cc(C)ccc3C)cc2F)CC1 (stereo not drawn) [Example 157, N-{4-[4-(Diethylcarbamoyl-phenyl-methyl)-piperidin-1-yl]-3-fluoro-phenyl}-2,5-dimethyl-benzamide] — within 1.5-fold, 235 nM
- CCC(CC)C(=O)Nc1ccc(N2CCN(C(C(=O)N3CCC(F)(F)CC3)c3ccc(F)cc3)CC2)c(F)c1 (stereo not drawn) [Example 158, N-(4-{4-[2-(4,4-Difluoro-piperidin-1-yl)-1-(4-fluoro-phenyl)-2-oxo-ethyl]-piperazin-1-yl}-3-fluoro-phenyl)-2-ethyl-butyramide] — within 1.5-fold, 240 nM
- CCNC(=O)C(c1cccc(F)c1)N1CCN(c2ccc(NC(=O)C(CC)CC)cc2F)CC1 (stereo not drawn) [Example 159, 2-Ethyl-N-(4-{4-[ethylcarbamoyl-(3-fluoro-phenyl)-methyl]-piperazin-1-yl}-3-fluoro-phenyl)-butyramide] — within 1.5-fold, 250 nM
- CCN(CC)C(=O)C(c1ccccc1)C1CCN(c2ccc(NC(=O)c3ccccc3N)cc2F)CC1 (stereo not drawn) [Example 160, 2-Amino-N-{4-[4-(diethylcarbamoyl-phenyl-methyl)-piperidin-1-yl]-3-fluoro-phenyl}-benzamide] — within 1.5-fold, 260 nM
- CCN(CC)C(=O)C(c1ccccc1)N1CCN(c2ccc(NC(=O)CC3CC3)cc2F)CC1 (stereo not drawn) [Example 161, 2-{4-[4-(2-Cyclopropyl-acetylamino)-2-fluoro-phenyl]-piperazin-1-yl}-N,N-diethyl-2-phenyl-acetamide] — the same, 300 nM
- CCN(CC)C(=O)C(c1ccccc1)C1CCN(c2ccc(NC(=O)c3cnoc3C)cc2F)CC1 (stereo not drawn) [Example 163, 5-Methyl-isoxazole-4-carboxylic acid {4-[4-(diethylcarbamoyl-phenyl-methyl)-piperidin-1-yl]-3-fluoro-phenyl}-amide] — the same, 300 nM

Same assay, conditions: Table 2, [125I]PYY 80 pM, average of results, read-out: IC50

Point of comparison: `CCN(CC)C(=O)C(c1ccccc1)N1CCN(c2ccc(C(=O)C3CCCC3)cc2F)CC1` (stereo not drawn) [Example 167, 2-[4-(4-Cyclopentanecarbonyl-2-fluoro-phenyl)-piperazin-1-yl]-N,N-diethyl-2-phenyl-acetamide], IC50 3300 nM. Against it:
- CCCS(=O)(=O)Nc1ccc(N2CCN(C(C(=O)N(CC)CC)c3ccccc3)CC2)c(F)c1 (stereo not drawn) [Example 165, N,N-Diethyl-2-{4-[2-fluoro-4-(propane-1-sulfonylamino)-phenyl]-piperazin-1-yl}-2-phenyl-acetamide] — 3-fold lower, 1100 nM
- CCCS(=O)(=O)N(c1ccc(N2CCN(C(C(=O)N(CC)CC)c3ccccc3)CC2)c(F)c1)S(=O)(=O)CCC (stereo not drawn) [Example 166, N-{4-[4-(Diethylcarbamoyl-phenyl-methyl)-piperazin-1-yl]-3-fluoro-phenyl}-N-dipropanesulfonanilide] — 5.9-fold lower, 560 nM
- CCN(CC)C(=O)C(c1ccccc1)N1CCN(c2ccc(/C(=N/O)C3CCCC3)cc2F)CC1 (stereo not drawn) [Example 168, 2-{4-[4-(Cyclopentyl-hydroxyimino-methyl)-2-fluoro-phenyl]-piperazin-1-yl}-N,N-diethyl-2-phenyl-acetamide] — 4.5-fold lower, 740 nM
- CCC(C)C(=O)c1ccc(N2CCN(C(C(=O)N(CC)CC)c3ccccc3)CC2)c(F)c1 (stereo not drawn) [Example 169, N,N-Diethyl-2-{4-[2-fluoro-4-(2-methyl-butyryl)-phenyl]-piperazin-1-yl}-2-phenyl-acetamide] — 8-fold lower, 410 nM
